# Values quoted from earlier work, collected in patent publication US9433602B2, “Combination and composition for treating obesity” (LABORATORIOS SENOSIAIN S.A. DE C.V., priority 2010, dated 2016).
# Where “and” joins values, the source holds several entries; their conditions need not be identical. Equal entries are not always repeated.
# What was measured:
# [1] = tested on: gastric and pancreatic lipases; conditions: pharmacological effect of the drug
# [2] = not given; remark: listed apart in the source
# [3] = humans, taken orally
Solubility in alcohol and methanol (alcohol and methanol),Solubility in hydrochloric acid 10% (hydrochloric acid 10%),Solubility in water,Solubility in chloroform (chloroform),"Plasma concentrations of intact orlistat ([2]; after single administration of 360 mg, normal weight and obese subjects) [ng/mL]","Plasma concentrations in general ([2]; in general, no evidence of accumulation)",Share of the fecally excreted dose that was unchanged orlistat ([2]; of the dose excreted in feces) [%],Administered dose excreted in feces ([2]; people with normal weight or obese),Bioavailability [3],Half-life [3],Structure (SMILES),Decrease of the absorption of ingested fat [1] [%]
soluble in alcohol and methanol,insoluble in hydrochloric acid 10%,insoluble in water,,,,,,,,"Oc1ccc(C=Cc2cc(O)cc(O)c2)cc1 [Resveratrol, 3,5,4′-trihydroxystilbene]",
,,insoluble in water,easily soluble in chloroform,< 5,< 10 ng/ml and < 0.02 μM,83,Approximately 97%,,,CCCCCCCCCCC[C@@H](C[C@@H]1OC(=O)[C@H]1CCCCCC)OC(=O)[C@H](CC(C)C)NC=O [orlistat],30
,,,,,,,,relatively low,approximately 8 h,Oc1ccc(/C=C/c2cc(O)cc(O)c2)cc1 [trans-resveratrol],
